Experimental data taken from patent publication US20050131209A1, “Crystallized hnf4 gamma ligand binding domain polypeptide and screening methods employing same” (priority 2001, published 2005).
“Also recorded” adds a separate entry of the source.

Tests used:
[1] = target: T1, HNF4α LBD / CBP (CREB-binding protein) (Homo sapiens, UniProt P41235); test: FRET assay of CBP recruitment to HNF4α LBD; format: biochemical; details: cell-free FRET; for effect on CBP recruitment / association between HNF4 and CBP: ligands incubated 15 minutes at 21° C.; for Kd: dose dependent, read-out: apparent binding constant (increase of CBP-HNF4 interaction)
T1 construct: HNF4α amino acids 141465 and HNF4γ amino acids 102-408; biotin (chemical biotinylation); made in house; host or cells: E. coli
T1 sequence (P41235 150-474 limits assumed): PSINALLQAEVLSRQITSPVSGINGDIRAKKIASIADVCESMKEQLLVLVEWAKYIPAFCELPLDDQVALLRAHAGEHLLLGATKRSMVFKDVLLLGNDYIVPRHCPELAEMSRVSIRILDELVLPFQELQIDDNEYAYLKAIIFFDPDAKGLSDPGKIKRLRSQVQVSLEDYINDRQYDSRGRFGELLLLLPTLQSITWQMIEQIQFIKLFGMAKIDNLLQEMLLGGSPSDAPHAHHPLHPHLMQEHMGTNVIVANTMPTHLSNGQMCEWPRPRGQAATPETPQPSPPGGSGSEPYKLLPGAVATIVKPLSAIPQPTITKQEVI
Protocol: (§1) To confirm that fatty acids were functional HNF4 ligands, HNF4α and HNF4γ were tested for their ability to recruit the nuclear receptor co-activator CREB binding protein, a known activation partner (Wang et al., (1998) J. Biol. Chem. 273: 30847-50; Dell & Hadzopoulou-Cladaras, (1999) J. Biol. Chem. 274: 9013-21). A FRET (fluorescent resonance energy transfer) assay was employed using purified recombinant CREB-binding protein (CBP) and HNF4 LBD (Zhou et al., (1998) Mol. Endocrinol. 12: 1594-1604). Long-chain fatty acids (LCFA) with increasing carbon lengths from 12 to 18 carbon methylene units were tested for their ability to modulate the association between HNF4 and CBP in a dose dependent manner. […] Palmitic and stearic acids increased the allosteric interaction between CBP and HNF4, with apparent binding constants of 1 μM.
(§2) The reported ligands for HNF4α are fatty acyl-CoA thioesters (Hertz et al., (1998) Nature (London) 392: 512-16), which are much larger than other nuclear receptor ligands (Bogan et al., (1998) Nat. Struct. Biol. 5: 679-81). […] Shorter fatty acyl-CoAs had no effect on CBP association.
(§3) A cell-free fluorescent resonance energy transfer (FRET) assay was used to measure the association between the amino portion of CBP (CREB-binding protein) (residues 54-457) and the HNF4 LBD (HNF4α amino acids 141465 and HNF4γ amino acids 102-408) (Zhou et al., (1998) Mol. Endocrinol 12: 1594-1604). Proteins were expressed in E. coli, purified to homogeneity, and biotinylated. CBP, the fluorescence donor, was labeled with a europium chelate, and HNF4 LBD was labeled with the streptavidin-conjugated fluorophore allophycocyanin (Molecular Probes, Eugene, Oreg.). Labeled HNF4 LBD and CBP were incubated together with ligands for 15 minutes at 21° C. before assaying. A small basal level was observed, as depicted in FIG. 3.

[2] = target: T2, HNF4γ LBD / CBP (CREB-binding protein) (Homo sapiens, UniProt Q14541); test: FRET assay of CBP recruitment to HNF4γ LBD; format: biochemical; details: cell-free FRET; for effect on CBP recruitment / association between HNF4 and CBP: ligands incubated 15 minutes at 21° C.; for Kd: dose dependent, read-out: apparent binding constant (increase of CBP-HNF4 interaction)
T2 construct: HNF4γ amino acids 102-408; biotin (chemical biotinylation); made in house; host or cells: E. coli
T2 sequence (Q14541 102-408): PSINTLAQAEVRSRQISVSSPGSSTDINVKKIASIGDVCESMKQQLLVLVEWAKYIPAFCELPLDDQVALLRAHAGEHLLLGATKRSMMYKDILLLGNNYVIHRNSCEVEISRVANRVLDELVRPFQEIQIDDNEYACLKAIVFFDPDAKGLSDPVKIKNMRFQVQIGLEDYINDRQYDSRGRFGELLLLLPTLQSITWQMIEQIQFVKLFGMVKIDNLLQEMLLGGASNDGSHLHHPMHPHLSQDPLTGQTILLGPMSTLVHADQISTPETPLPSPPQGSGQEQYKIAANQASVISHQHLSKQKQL
Protocol: as §1, §2, §3

HNF4γ LBD = target: T3, HNF4γ LBD (Homo sapiens, UniProt Q14541); test: GC/MS identification of fatty acids bound to purified HNF4γ LBD (extract); format: binding; details: lipid extract of purified HNF4γ LBD, methyl esters, CI and EI
T3 construct: HNF4γ amino acids 102-408; made in house; host or cells: E. coli BL21 (DE3), vector pRSETa
T3 sequence (Q14541 102-408): T2 sequence (Q14541 102-408)
Protocol: The description of the bound ligand from the structural data led to the belief that the compound was a fatty acid. Analytical methods were used to obtain a definitive identification of the ligand. First, bound ligand(s) was separated from a purified preparation of HNF4γ LBD by liquid-liquid extraction (Folch et al., (1957) J. Biol. Chem. 226: 497-509). The extract was then treated with 3% (v/v) acetyl chloride in methanol. This reagent converts fatty acids to their corresponding fatty acid methyl esters (FAME). The derivatized sample was then analyzed by gas chromatography/mass spectrometry (GC/MS) using both electron impact ionization (EI) and chemical ionization (CI) in separate analyses. The constituents of the extract were identified by comparing the GC/MS data for the extract with data for standard fatty acids, acquired likewise.
The CI mass spectra for peaks a through g all show a protonated molecular ion ([M+H]^+) along with a fragment ion at a mass-to-charge (m/z) value 32 Da below the protonated molecular ion. […]
The second column lists the protonated molecular ion detected of each labeled peak in FIG. 4. […]
Lipids were extracted from an aliquot of HNF4γ LBD with chloroform/methanol 2:1 (v/v). […] The derivatized sample was then analyzed by GC/MS on a Shimadzu GC-17A QP-5050A instrument. […]

HNF4α = target: T4, HNF4α (Homo sapiens, UniProt P41235); test: GC/MS analyses of receptor extracts, HNF4α; format: binding
T4 sequence (P41235 1-474): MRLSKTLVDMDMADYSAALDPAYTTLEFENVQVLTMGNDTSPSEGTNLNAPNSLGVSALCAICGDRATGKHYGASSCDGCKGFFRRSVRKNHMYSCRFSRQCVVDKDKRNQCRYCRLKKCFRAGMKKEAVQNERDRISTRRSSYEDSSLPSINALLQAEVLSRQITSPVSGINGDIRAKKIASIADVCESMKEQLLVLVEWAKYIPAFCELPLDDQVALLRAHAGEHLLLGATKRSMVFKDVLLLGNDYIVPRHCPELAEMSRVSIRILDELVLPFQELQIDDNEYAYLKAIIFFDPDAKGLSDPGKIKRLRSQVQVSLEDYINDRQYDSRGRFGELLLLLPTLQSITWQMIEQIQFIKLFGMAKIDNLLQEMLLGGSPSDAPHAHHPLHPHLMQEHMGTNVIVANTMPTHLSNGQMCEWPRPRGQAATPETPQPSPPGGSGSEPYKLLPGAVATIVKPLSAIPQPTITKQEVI
Text: Palmitic acid forms hydrogen bonds with the side chain of arginine 186, and with the backbone nitrogen of glycine 197 (not shown). Alanine 215 corresponds to serine 256 in HNF4α. Because serine can form hydrogen bonds to the ligand, the specificity is different for the two receptor subtypes. […] Valine 214 corresponds to valine 255 in HNF4α, and is one of the mutations associated with MODY, Type 1.

Compound	effect on CBP recruitment / association between HNF4 and CBP [1]	effect on CBP recruitment / association between HNF4 and CBP [2]	Kd [1]	Kd [2]	fatty acid found in HNF4γ extract by GC/MS (HNF4γ LBD)	binding to HNF4α by GC/MS of receptor extracts (HNF4α)
CCCCCCCCCCCCCCCC(=O)SCCNC(=O)CCNC(=O)[C@H](O)C(C)(C)COP(=O)(O)OP(=O)(O)OC[C@H]1O[C@@H](n2cnc3c(N)ncnc32)[C@H](O)[C@@H]1OP(=O)(O)O [palmitoyl-CoA]	decreased the basal level	decreased the basal level				
CCCCCCCCCCCCCCCC(=O)O [palmitic acid]	functional activators; also recorded: increased	functional activators; also recorded: increased	1000 nM	1000 nM	most abundant component	binds
CCCCCCCCCCCCCCCCCC(=O)O [stearic acid]	functional activators; also recorded: increased	functional activators; also recorded: increased	1000 nM	1000 nM		binds
CCCCCCCCCCCCCCCCCC(=O)SCCNC(=O)CCNC(=O)[C@H](O)C(C)(C)COP(=O)(O)OP(=O)(O)OC[C@H]1O[C@@H](n2cnc3c(N)ncnc32)[C@H](O)[C@@H]1OP(=O)(O)O [steroyl-CoA]	decreased the basal level	decreased the basal level				
